According to US9079913B2, “Spiro-oxindole MDM2 antagonists” (The Regents of the University of Michigan, priority 2009, dated 2015):
Where two headings read alike, the source gives them in different places.

Assays:
[1] = tested on: Isogenic HCT-116 colon cancer cell lines; assay: cells; format: cell-based;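 also: cells grown in 96-well plates in McCoy's 5A medium with 10% FBS, exposed to compound for 4 days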
Description: Cells were seeded in 96-well flat bottom cell culture plates at a density of 2−3×10^3 cells/well with compounds and incubated for 4 days.

[2] = target: recombinant human His-tagged MDM2 protein (residues 1-118) (Homo sapiens (Human), UniProt Q00987); assay: Fluorescence-polarization MDM2 binding assay;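 also: fluorescence polarization read after three hours of incubation in potassium phosphate buffer containing bovine gamma globulin and Triton X-100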
Chain of recombinant human His-tagged MDM2 protein (residues 1-118) (Q00987 1-118): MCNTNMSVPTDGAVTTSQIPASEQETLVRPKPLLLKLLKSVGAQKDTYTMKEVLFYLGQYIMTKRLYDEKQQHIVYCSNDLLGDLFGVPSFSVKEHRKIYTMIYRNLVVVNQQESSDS

[3] = tested on: cancer cell lines with wild-type p53 / mutated or deleted p53 (ATCC); assay: Cell growth assay (WST-8), other cancer cell lines; format: cell-based
[4] = Homo sapiens, HCT-116, read-out: Inhibition of cell growth IC50, HCT116 p53 KO, Table 19B, HCT116 p53 KO
[5] = Homo sapiens, HCT-116, read-out: Inhibition of cell growth IC50, HCT116 p53 WT, Table 19B, HCT116 p53 WT
[6] = Table 19B, read-out: Binding affinities to MDM2 protein as determined by FP based assay IC50
[7] = Homo sapiens, LNCaP, Table 19B, LNCaP cells, read-out: Inhibition of cell growth IC50, LNCaP
[8] = Homo sapiens, PC-3, Table 19B, PC3 cells, read-out: Inhibition of cell growth IC50, PC3
[9] = Homo sapiens, HCT-116, read-out: HCT116p53KO IC50, Table 19D, HCT116 p53KO
[10] = Homo sapiens, HCT-116, read-out: HCT116p53WT IC50, Table 19D, HCT116 p53WT
[11] = Table 19D, read-out: MDM2 Binding Affinities IC50
[12] = Homo sapiens, LNCaP, Table 19D, LNCaP cells, read-out: LNCaP IC50
[13] = Homo sapiens, PC-3, Table 19D, PC3 cells, read-out: PC3 IC50
[14] = Homo sapiens, HCT-116, read-out: HCT-116 (p53-/-) IC50, Table 19A, HCT-116 p53-/-, cell growth
[15] = Homo sapiens, HCT-116, read-out: HCT-116 (p53 wild-type) IC50, Table 19A, HCT-116 p53 wild-type, cell growth
[16] = Table 19A, FP binding assay, read-out: MDM2 IC50
[17] = Homo sapiens, LNCaP, Table 19A, LNCAP cells, p53 wild-type, cell growth, read-out: LNCAP (p53 wild-type) IC50
[18] = Homo sapiens, PC-3, Table 19A, PC-3 cells, deleted p53, cell growth, read-out: PC-3 (deleted p53) IC50
[19] = Homo sapiens, SJSA-1, Table 19A, SJSA-1 cells, p53 wild-type, cell growth, read-out: SJSA-1 (p53 wild-type) IC50
[20] = read-out: Inhibition of cell growth IC50, HCT116 p53 KO, Table 19B, HCT116 p53 KO
[21] = read-out: Inhibition of cell growth IC50, HCT116 p53 WT, Table 19B, HCT116 p53 WT
[22] = Table 19B, LNCaP cells, read-out: Inhibition of cell growth IC50, LNCaP
[23] = Table 19B, PC3 cells, read-out: Inhibition of cell growth IC50, PC3

CCCC(C)(C)C[C@H]1N[C@@H](C(=O)NCC[C@H](O)CO)[C@H](c2cccc(Cl)c2)[C@@]12C(=O)Nc1cc(Cl)c(F)cc12 [MI-729]
IC50 [1, 4]: 8900 ± 100 nM | IC50 [1, 5]: 800 ± 200 nM | IC50 [2, 6]: < 1000 nM | IC50 [3, 7]: 1000 nM | IC50 [3, 8]: 6100 ± 1600 nM

CC(C)(C)C[C@H]1N[C@@H](C(=O)NCC[C@H](O)CO)[C@H](c2ccc(F)c(F)c2)[C@@]12C(=O)Nc1cc(F)c(F)cc12 [MI-519-12]
IC50 [1, 9]: > 10000 nM | IC50 [1, 10]: < 3000 nM | IC50 [2, 11]: < 10000 nM | IC50 [3, 12]: < 3000 nM | IC50 [3, 13]: > 10000 nM

CC(C)[C@@H](N)C(=O)OC1CCC(NC(=O)[C@@H]2N[C@H](CC(C)(C)C)[C@]3(C(=O)Nc4cc(Cl)ccc43)[C@H]2c2cccc(Cl)c2F)CC1 (stereo partly drawn) [MI-905]
IC50 [1, 14]: 8000 nM | IC50 [1, 15]: < 3000 nM | IC50 [2, 16]: < 1000 nM | IC50 [3, 17]: < 3000 nM | IC50 [3, 18]: 3900 nM | IC50 [3, 19]: < 3000 nM

CN1CCN(C(=O)[C@@H]2N[C@H](CC(C)(C)C)[C@]3(C(=O)Nc4cc(Cl)c(F)cc43)[C@H]2c2cccc(Cl)c2)CC1 [MI-740]
IC50 [1, 14]: 5400 ± 1900 nM | IC50 [1, 15]: 2800 ± 100 nM | IC50 [2, 16]: < 5000 nM | IC50 [3, 17]: 2000 ± 300 nM | IC50 [3, 18]: 4800 ± 800 nM

CN1CCC(CNC(=O)[C@@H]2N[C@H](CC(C)(C)C)[C@]3(C(=O)Nc4cc(Cl)ccc43)[C@H]2c2cccc(Cl)c2F)CC1 [MI-519-53-1]
IC50 [1, 9]: > 3000 nM | IC50 [1, 10]: < 1000 nM | IC50 [2, 11]: < 1000 nM | IC50 [3, 12]: < 1000 nM | IC50 [3, 13]: > 3000 nM | IC50 ([3]; Homo sapiens, Table 19D, SJSA-1 cells, unit inferred, read-out: SJSA-1): < 1000 nM

CC(C)(C)C[C@H]1N[C@@H](C(=O)NCCC2CCC(O)C2)[C@H](c2cccc(Cl)c2F)[C@@]12C(=O)Nc1cc(Cl)ccc12 (stereo partly drawn) [MI-755]
IC50 [1, 4]: > 10000 nM | IC50 [1, 5]: < 3000 nM | IC50 [2, 6]: < 1000 nM | IC50 [3, 7]: < 3000 nM | IC50 [3, 8]: > 10000 nM

O=C(NCC[C@H](O)CO)[C@@H]1N[C@H](CCc2ccco2)[C@]2(C(=O)Nc3cc(Cl)c(F)cc32)[C@H]1c1cccc(Cl)c1 [MI-715C]
IC50 [1, 20]: > 10000 nM | IC50 [1, 21]: 2900 ± 600 nM | IC50 [2, 6]: < 5000 nM | IC50 [3, 22]: 2200 ± 1200 nM | IC50 [3, 23]: > 10000 nM

CN1[C@@H](C(=O)NCC[C@H](O)CO)[C@H](c2cccc(Cl)c2)[C@@]2(C(=O)Nc3cc(Cl)c(F)cc32)[C@H]1CC(C)(C)C [MI-708B]
IC50 [1, 20]: 96900 ± 17800 nM | IC50 [1, 21]: 6600 ± 2200 nM | IC50 [2, 6]: > 3000 nM | IC50 [3, 22]: 6000 ± 300 nM | IC50 [3, 23]: 84500 ± 18300 nM

CCC(C)(C)C[C@H]1N(C)[C@@H](C(=O)NCC[C@H](O)CO)[C@H](c2cccc(Cl)c2F)[C@@]12C(=O)Nc1cc(F)c(F)cc12 [MI-723]
IC50 [1, 4]: 51300 nM | IC50 [1, 5]: 2420 nM | IC50 [2, 6]: < 5000 nM | IC50 [3, 7]: 2300 nM | IC50 [3, 8]: 24600 nM

O=C(NCC[C@H](O)CO)[C@@H]1N[C@H](CCc2ccco2)[C@]2(C(=O)Nc3cc(Cl)c(F)cc32)[C@H]1c1cccc(Cl)c1 [MI-715B]
IC50 [1, 4]: > 10000 nM | IC50 [1, 5]: 2700 ± 1000 nM | IC50 [2, 6]: < 5000 nM | IC50 [3, 7]: 3000 ± 700 nM | IC50 [3, 8]: > 10000 nM

CC(C)(C)C[C@H]1N[C@@H](C(=O)NCC[C@](C)(O)CO)[C@H](c2cccc(Cl)c2F)[C@@]12C(=O)Nc1cc(Cl)ccc12 [MI-789]
IC50 [1, 14]: > 10000 nM | IC50 [1, 15]: < 3000 nM | IC50 [2, 16]: < 3000 nM | IC50 [3, 17]: < 3000 nM | IC50 [3, 18]: > 10000 nM | IC50 [3, 19]: < 3000 nM

CCCCNC(=O)N1CC(NC(=O)[C@@H]2N[C@H](CC(C)(C)C)[C@]3(C(=O)Nc4cc(Cl)ccc43)[C@H]2c2cccc(Cl)c2F)C1 [MI-916]
IC50 [1, 14]: > 5000 nM | IC50 [1, 15]: < 3000 nM | IC50 [2, 16]: < 100 nM | IC50 [3, 17]: < 3000 nM | IC50 [3, 18]: > 5000 nM | IC50 [3, 19]: < 5000 nM

CC(C)CC(C)(C)C[C@H]1N[C@@H](C(=O)NCCN2CCOCC2)[C@H](c2cccc(Cl)c2F)[C@@]12C(=O)Nc1cc(F)c(F)cc12 [MI-730]
IC50 [1, 4]: 7800 ± 700 nM | IC50 [1, 5]: 1400 ± 300 nM | IC50 [2, 6]: < 1000 nM | IC50 [3, 7]: 1700 ± 500 nM | IC50 [3, 8]: 6300 ± 1400 nM
